Like-named read-outs stand apart in the source and are kept apart here.
Legend:
AC8 = AC8 (Homo sapiens, UniProt P40145); assay: cAMP accumulation (HTRF) in HEK cells stably expressing AC8, stimulated with A23187; assay type: cell-based; design: expressed in transfected cells; host or cells: HEK cells stably expressing AC8 (HEK-AC8), hygromycin B selection; conditions: Table 1; for Max AC8 Inh (%): maximum inhibition of AC8; for IC50: HEK-AC8 cells, A23187-stimulated cAMP accumulation
Protocol: (§1) The primary technology we employed to measure cAMP accumulation was a homogenous time-resolved fluorescence (HTRF) assay, the same technology utilized in the primary screen. […]
(§2) Briefly, cryopreserved cells were thawed, resuspended in optiMEM (Life Technologies), and plated in white, flat bottom, low-volume, tissue culture-treated 384 well plates (PerkinElmer, Shelton, Conn.). Plates with cells were incubated in a 37° C. humidified incubator for 1 h. Inhibitors were added and plates were incubated at room temperature for 30 min followed by the addition of AC stimulants in the presence of 500 μM IBMX. Cells were incubated at room temperature for 1 h and cAMP accumulation was measured using Cisbio's cAMP kit (Cisbio Bioassays, Bedford, Mass.) according to the manufacturer's instructions.

AC1 = AC1 (Homo sapiens, UniProt Q08828); assay: cAMP accumulation (HTRF) in HEK cells stably expressing AC1, stimulated with A23187; assay type: cell-based; design: expressed in transfected cells; host or cells: HEK cells stably expressing AC1 (HEK-AC1), G418 selection
Protocol: The screen was carried out using HEK cells stably expressing AC1 (HEK-AC1) and cyclic AMP accumulation was stimulated using the Ca^2+ ionophore, A23187 to selectively activate AC1. […]
as §1, §2

[1] = Table 1, HEK-AC1 cells, A23187-stimulated cAMP accumulation, read-out: AC1 IC50

Sequence of AC8 (P40145 whole entry, species assumed): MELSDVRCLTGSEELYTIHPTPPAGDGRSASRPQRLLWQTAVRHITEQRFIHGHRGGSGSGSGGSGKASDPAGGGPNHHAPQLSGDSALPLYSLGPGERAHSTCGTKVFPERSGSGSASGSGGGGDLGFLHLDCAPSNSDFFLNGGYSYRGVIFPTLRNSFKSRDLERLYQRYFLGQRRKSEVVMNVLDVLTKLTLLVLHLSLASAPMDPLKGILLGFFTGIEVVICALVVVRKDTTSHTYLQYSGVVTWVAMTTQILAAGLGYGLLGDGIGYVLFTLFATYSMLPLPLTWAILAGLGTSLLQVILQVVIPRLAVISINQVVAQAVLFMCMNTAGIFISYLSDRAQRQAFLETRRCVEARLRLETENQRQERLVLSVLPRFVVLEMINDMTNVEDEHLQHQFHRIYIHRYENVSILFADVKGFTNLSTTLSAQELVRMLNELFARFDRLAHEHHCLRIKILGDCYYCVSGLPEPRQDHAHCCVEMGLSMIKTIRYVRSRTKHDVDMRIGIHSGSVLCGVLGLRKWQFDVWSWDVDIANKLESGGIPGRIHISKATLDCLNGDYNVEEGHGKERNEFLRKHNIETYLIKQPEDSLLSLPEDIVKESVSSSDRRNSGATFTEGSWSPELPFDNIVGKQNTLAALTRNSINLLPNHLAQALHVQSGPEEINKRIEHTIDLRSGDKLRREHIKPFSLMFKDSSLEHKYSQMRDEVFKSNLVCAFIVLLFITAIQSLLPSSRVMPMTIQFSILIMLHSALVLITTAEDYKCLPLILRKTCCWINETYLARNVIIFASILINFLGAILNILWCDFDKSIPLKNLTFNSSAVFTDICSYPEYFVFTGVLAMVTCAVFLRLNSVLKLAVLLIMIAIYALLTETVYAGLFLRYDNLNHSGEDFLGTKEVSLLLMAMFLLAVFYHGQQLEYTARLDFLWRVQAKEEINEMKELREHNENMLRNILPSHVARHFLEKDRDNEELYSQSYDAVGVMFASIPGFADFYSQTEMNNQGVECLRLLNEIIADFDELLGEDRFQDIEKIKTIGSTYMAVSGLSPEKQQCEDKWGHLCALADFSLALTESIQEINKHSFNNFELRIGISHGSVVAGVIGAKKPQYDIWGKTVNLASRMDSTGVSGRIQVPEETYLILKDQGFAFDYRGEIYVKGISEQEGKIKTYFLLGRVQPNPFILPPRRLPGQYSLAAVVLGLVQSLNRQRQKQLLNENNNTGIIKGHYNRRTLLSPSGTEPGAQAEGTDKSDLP
Sequence of AC1 (Q08828 whole entry): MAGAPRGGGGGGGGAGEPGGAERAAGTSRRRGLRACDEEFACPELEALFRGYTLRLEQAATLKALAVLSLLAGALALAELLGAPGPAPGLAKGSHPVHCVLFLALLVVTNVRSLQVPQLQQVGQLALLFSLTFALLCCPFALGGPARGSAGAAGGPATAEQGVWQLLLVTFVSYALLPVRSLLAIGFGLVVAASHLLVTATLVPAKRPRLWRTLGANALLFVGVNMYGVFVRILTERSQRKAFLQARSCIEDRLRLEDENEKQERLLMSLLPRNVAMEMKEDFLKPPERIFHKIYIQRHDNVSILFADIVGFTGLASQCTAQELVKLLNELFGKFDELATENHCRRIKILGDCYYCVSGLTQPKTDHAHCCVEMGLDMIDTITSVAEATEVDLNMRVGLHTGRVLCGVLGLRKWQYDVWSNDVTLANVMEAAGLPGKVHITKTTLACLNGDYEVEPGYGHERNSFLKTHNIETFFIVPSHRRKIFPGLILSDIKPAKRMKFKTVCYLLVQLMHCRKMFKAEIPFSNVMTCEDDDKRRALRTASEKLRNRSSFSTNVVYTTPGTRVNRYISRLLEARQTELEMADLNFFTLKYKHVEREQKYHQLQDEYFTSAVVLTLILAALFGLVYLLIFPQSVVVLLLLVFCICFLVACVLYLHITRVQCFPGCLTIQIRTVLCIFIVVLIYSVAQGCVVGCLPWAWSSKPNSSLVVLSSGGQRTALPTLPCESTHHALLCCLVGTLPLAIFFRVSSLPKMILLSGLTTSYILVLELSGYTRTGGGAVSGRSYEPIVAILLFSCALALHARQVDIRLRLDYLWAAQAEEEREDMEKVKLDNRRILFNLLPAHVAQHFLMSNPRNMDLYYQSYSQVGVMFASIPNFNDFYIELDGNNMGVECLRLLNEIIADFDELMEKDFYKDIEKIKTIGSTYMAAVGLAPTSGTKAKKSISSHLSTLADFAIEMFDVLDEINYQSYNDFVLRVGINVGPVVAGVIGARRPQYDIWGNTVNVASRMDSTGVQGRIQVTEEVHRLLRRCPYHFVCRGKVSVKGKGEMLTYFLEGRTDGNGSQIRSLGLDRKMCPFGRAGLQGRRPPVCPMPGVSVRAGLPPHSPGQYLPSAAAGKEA

| SMILES | Max AC8 Inh (%) (AC8) | IC50 (AC1; [1]) [nM] | IC50 (AC8) [µM] | IC50 (AC1) [nM] |
| --- | --- | --- | --- | --- |
| CCc1cc(=O)[nH]c(-n2nc(C)cc2NC(=O)c2ccco2)n1 [AC10069, N-(1-(6-ethyl-4-oxo-1,4-dihydropyrimidin-2-yl)-3-methyl-1H-pyrazol-5-yl)furan-2-carboxamide] | 20 | 6100 | – | – |
| CCc1cc(=O)[nH]c(-n2nc(C)cc2NC(=O)c2ccc(C)cc2)n1 [AC10080, N-(1-(6-ethyl-4-oxo-1,4-dihydropyrimidin-2-yl)-3-methyl-1H-pyrazol-5-yl)-4-methylbenzamide] | 27 | 700 | 48 | – |
| CCc1cc(=O)[nH]c(-n2nc(C)cc2NC(=O)c2ccc(OC)cc2)n1 [AC10076, N-(1-(6-ethyl-4-oxo-1,4-dihydropyrimidin-2-yl)-3-methyl-1H-pyrazol-5-yl)-4-methoxybenzamide] | 0 | – | 33 | – |
| CCc1cc(=O)[nH]c(-n2nc(C)cc2NC(=O)c2cccc(Cl)c2)n1 [AC10090, 3-chloro-N-(1-(6-ethyl-4-oxo-1,4-dihydropyrimidin-2-yl)-3-methyl-1H-pyrazol-5-yl)benzamide] | 48 | 400 | 6.9 | – |
| CCc1cc(=O)[nH]c(-n2nc(C)cc2NC(=O)c2ccccc2CC)n1 [AC10074, 2-ethyl-N-(1-(6-ethyl-4-oxo-1,4-dihydropyrimidin-2-yl)-3-methyl-1H-pyrazol-5-yl)benzamide] | 21 | 2800 | 50 | – |
| CCc1cc(=O)[nH]c(-n2nc(C)cc2NC(=O)c2ccc(OCOC)cc2)n1 [AC10071, N-(1-(6-ethyl-4-oxo-1,4-dihydropyrimidin-2-yl)-3-methyl-1H-pyrazol-5-yl)-4-(methoxymethoxy)benzamide] | – | 3200 | 23 | – |
| CCc1cccc(C(=O)Nc2cc(C)nn2-c2nc(CC)cc(=O)[nH]2)c1 [AC10081, 3-ethyl-N-(1-(6-ethyl-4-oxo-1,4-dihydropyrimidin-2-yl)-3-methyl-1H-pyrazol-5-yl)benzamide] | 12 | 400 | – | – |
| CCc1ccc(C(=O)Nc2cc(C)nn2-c2nc(CC)cc(=O)[nH]2)cc1 [AC10082, 4-ethyl-N-(1-(6-ethyl-4-oxo-1,4-dihydropyrimidin-2-yl)-3-methyl-1H-pyrazol-5-yl)benzamide] | 19 | 500 | 37 | – |
| CCc1cc(=O)[nH]c(-n2nc(C)cc2NC(=O)c2cccc(C(C)C)c2)n1 [AC10087, N-(1-(6-ethyl-4-oxo-1,4-dihydropyrimidin-2-yl)-3-methyl-1H-pyrazol-5-yl)-3-isopropylbenzamide] | 28 | 400 | 24 | – |
| CCc1cc(=O)[nH]c(-n2nc(C)cc2NC(=O)c2cccc(C)c2)n1 [AC10079, N-(1-(6-ethyl-4-oxo-1,4-dihydropyrimidin-2-yl)-3-methyl-1H-pyrazol-5-yl)-3-methylbenzamide] | 27 | – | 27 | 400 |
| CCc1cc(=O)[nH]c(-n2nc(C)cc2NC(=O)c2ccccc2)n1 [AC10068, N-(1-(6-ethyl-4-oxo-1,4-dihydropyrimidin-2-yl)-3-methyl-1H-pyrazol-5-yl)benzamide] | 0 | 2700 | – | – |
| CCc1cc(=O)[nH]c(-n2nc(C)cc2NC(=O)Cc2cccc(C)c2)n1 [AC10075, N-(1-(6-ethyl-4-oxo-1,4-dihydropyrimidin-2-yl)-3-methyl-1H-pyrazol-5-yl)-2-(m-tolyl)acetamide] | 59 | 10000 | 50 | – |
| CCc1cc(=O)[nH]c(-n2nc(C)cc2NC(=O)c2ccccc2F)n1 [AC10048, N-(1-(6-ethyl-4-oxo-1,4-dihydropyrimidin-2-yl)-3-methyl-1H-pyrazol-5-yl)-2-fluorobenzamide] | 46 | 1500 | – | – |
| CCc1cc(=O)[nH]c(-n2nc(C)cc2NC(=O)c2cccc(SC)c2)n1 [AC10088, N-(1-(4-ethyl-6-oxo-1,6-dihydropyrimidin-2-yl)-3-methyl-1H-pyrazol-5-yl)-3-(methylthio)benzamide] | 52 | 400 | 9.7 | – |
| CCc1cc(=O)[nH]c(-n2nc(C)cc2NC(=O)c2cccc(F)c2)n1 [AC10091, N-(1-(6-ethyl-4-oxo-1,4-dihydropyrimidin-2-yl)-3-methyl-1H-pyrazol-5-yl)-3-fluorobenzamide] | 55 | 1200 | 12 | – |
| CCc1cc(=O)[nH]c(-n2nc(C)cc2NC(=O)c2ccccc2C)n1 [AC10077, N-(1-(6-ethyl-4-oxo-1,4-dihydropyrimidin-2-yl)-3-methyl-1H-pyrazol-5-yl)-2-methylbenzamide] | 11 | 2400 | – | – |
| CCc1cc(=O)[nH]c(-n2nc(C)cc2NC(=O)c2cccc(OC)c2)n1 [AC10073, N-(1-(6-ethyl-4-oxo-1,4-dihydropyrimidin-2-yl)-3-methyl-1H-pyrazol-5-yl)-3-methoxybenzamide] | 5 | – | – | 1000 |
| CCc1cc(=O)[nH]c(-n2nc(C)cc2NC(=O)c2ccccn2)n1 [AC10093, N-(1-(6-ethyl-4-oxo-1,4-dihydropyrimidin-2-yl)-3-methyl-1H-pyrazol-5-yl)picolinamide] | 46 | – | 15 | – |
| CCc1cc(=O)[nH]c(-n2nc(C)cc2NC(=O)c2ccc(Cl)cc2)n1 [AC10058, 4-chloro-N-(1-(6-ethyl-4-oxo-1,4-dihydropyrimidin-2-yl)-3-methyl-1H-pyrazol-5-yl)benzamide] | 32 | 300 | 9.5 | – |
| CCc1cc(=O)[nH]c(-n2nc(C)cc2NC(=O)c2cccc(C(F)(F)F)c2)n1 [AC10089, N-(1-(4-ethyl-6-oxo-1,6-dihydropyrimidin-2-yl)-3-methyl-1H-pyrazol-5-yl)-3-(trifluoromethyl)benzamide] | 41 | 700 | 18 | – |
| CCc1cc(=O)[nH]c(-n2nc(C)cc2NC(=O)c2ccc(F)cc2)n1 [AC10092, N-(1-(6-ethyl-4-oxo-1,4-dihydropyrimidin-2-yl)-3-methyl-1H-pyrazol-5-yl)-4-fluorobenzamide] | 52 | 900 | 14 | – |

Source: US20230250084A1, “PYRAZOLYL PYRIMIDINONE COMPOUNDS AND THE USES THEREOF” (Purdue Research Foundation, priority 2019, published 2023)
